Results as given in US5608093A, “Corticosteroid 17-alkyl carbonate 21-[0]-carboxylic and carbonic esters, and pharmaceuticals containing these compounds” (Hoechst Aktiengesellschaft, priority 1993, dated 1997).

What was measured:
[1] = system: croton oil (TPA) ear edema, rat ear; assay: Local antiinflammatory effect in rat croton oil ear edema following epicutaneous application; assay type: in vivo, rat (male Wistar); conditions: for Inhibition in % / x ± s (mg), ear disk weight difference (right treated minus left untreated): epicutaneous, 4 h; for Local antiinflammatory effect (in words): general statement; for Relative local antiinflammatory potency (Result): rat ear edema, in words
Description: (§1) 1. Local antiinflammatory effect in rat croton oil ear edema following epicutaneous application
(§2) We used the rat ear method of Tonelli et al.: male Wistar rats from our own colony and weighing about 50 g were treated epicutaneously on the right ear with the irritant or with irritant containing test substance. The left ear remained untreated. TPA (12-O-tetradecanoylphorbol 13-acetate, SIGMA P 8139) dissolved in acetone, 0.4 mg/ml, (of which 20 μl each on the inside and outside) was used for eliciting the inflammation. The corticoids under examination were dissolved in this solution in the given final concentrations. Controls only received the TPA/solvent mixture. The animals were sacrificed using CO2 4 h after the epicutaneous treatment. Disks measuring 8 mm in diameter were punched out of the right (treated) and the left (untreated) ears and weighed immediately. This difference, as the parameter for the degree of inflammation, was set at 100 in the controls (mg, x±s). The antiinflammatory effect is characterized by giving the dose in mg/ml which is required for approximately 50% inhibition: […]

carrageenan paw edema = assay: Systemic antiinflammatory effect following subcutaneous administration: carrageenan paw edema in rats; assay type: in vivo, rat (male Sprague-Dawley); conditions: for Increase in volume (ml) (x ± s), paw: 6 h after carrageenan
Description: 2 a) Examining for systemic antiinflammatory effect in the "antiinflammatory effect following subcutaneous administration: carrageenan paw edema in rats" test.
The carrageenan paw edema test in rats in accordance with the method described by Winter et al. Proc. Soc. Exp. Biol. (New York) Volume 111, p. 544 (1962) was chosen as the test for the acute systemic antiinflammatory effect. Male Sprague-Dawley rats of about 120 g in weight were given the substances to be tested s.c. (0.2 ml/100 g) dissolved in sesame oil. 30 min later, 0.1 ml of a 0.5% carrageenan solution was injected into the left hind paw. 6 h later, the degree of swelling was measured volumetrically. Controls were only given sesame oil.
The paw volumes are given in ml, x±s. In this case too, the antiinflammatory effect is characterized by giving the dose in mg/kg required for approximately 50% inhibition.

[2] = Split (ratio) of local to systemic antiinflammatory effect / therapeutic advantage; assay type: in vivo, rat
Description: as §1, §2
The carrageenan paw edema test in rats in accordance with the method described by Winter et al. Proc. Soc. […] 6 h later, the degree of swelling was measured volumetrically. […]

[3] = system: gluconeogenesis in rats (liver); assay: Systemic effect: gluconeogenesis in adrenalectomized rats; conditions: for Glycogen + glucose mg/100 g of liver / Liver glycogen: 6 h; for Effect on new formation of glucose and glycogen (in words): p 0.05, t test
Description: A sensitive method for detecting systemic effects on carbohydrate metabolism is to examine the gluconeogenic effect of corticosteroids in the adrenalectomized rat. Three days prior to the experiment, groups of in each case 6 rats are adrenalectomized under pentobarbital anesthesia and then provided with 0.9% sodium chloride solution as drinking fluid. Two days later, i.e. 24 hours before initiating the experiment, the feed is removed in order to reduce the glycogen stores in the liver.
On the day of the experiment, the preparations under examination are administered subcutaneously, dissolved in sesame oil (2 ml/kg). Six hours later, the animals are decapitated, and in each case the liver is removed and 1 g thereof is taken up in 5 ml of 0.6 molar perchloric acid. After homogenization, the free glucose is measured in the supernatant from the centrifugation, while the centrifugation sediment (centrifugate; glycogen) is cleaved enzymically with amyloglucosidase, after which the glucose content is also measured in this fraction (Hexokinase method, Boehringer Mannheim).

[4] = 3.0 mg/kg s.c., * p<0.05, Dunnett's test
[5] = 3 mg/kg s.c., * significant, t test

SMILES | Inhibition in % ([1]; 0.03 mg/ml) [%] | x ± s (mg), ear disk weight difference (right treated minus left untreated) ([1]; 0.03 mg/ml) [mg] | Inhibition in % ([1]; 0.1 mg/ml) [%] | x ± s (mg), ear disk weight difference (right treated minus left untreated) ([1]; 0.1 mg/ml) [mg] | Inhibition in % ([1]; 0.3 mg/ml) [%] | x ± s (mg), ear disk weight difference (right treated minus left untreated) ([1]; 0.3 mg/ml) [mg] | Local antiinflammatory effect (in words) [1] | Relative local antiinflammatory potency (Result) [1] | Increase in volume (ml) (x ± s), paw (carrageenan paw edema; 0.3 mg/kg s.c.) [mL] | Increase in volume (ml) (x ± s), paw (carrageenan paw edema; [4]) [mL] | Split / ratio of local to systemic antiinflammatory effect (in words) [2] | Glycogen + glucose mg/100 g of liver ([3]; 0.3 mg/kg s.c.) | Liver glycogen ([3]; 0.3 mg/kg s.c.) | Glycogen + glucose mg/100 g of liver [3, 5] | Liver glycogen [3, 5] | Effect on new formation of glucose and glycogen (in words) ([3]; 3 mg/kg s.c.) | Inhibition in % ([1]; 1 mg/ml) [%] | x ± s (mg), ear disk weight difference (right treated minus left untreated) ([1]; 1 mg/ml) [mg] | Systemic effect in paw edema compared with the test compounds (in words) (carrageenan paw edema; significant only after 3 mg/kg, s.c.)
CCOC(=O)O[C@]1(C(=O)COC(=O)Cc2ccccc2)CC[C@H]2[C@@H]3CCC4=CC(=O)C=C[C@]4(C)[C@H]3[C@@H](O)C[C@@]21C [Compound I, Prednisolone 17-ethyl carbonate 21-phenylacetate] | 33 | 10 ± 3.0 | 67 | 5 ± 1.1 | 80 | 3 ± 2.3 | strong local antiinflammatory effect | approximately three times more powerful than prednicarbate | 0.34 ± 0.12 | 0.19 ± 0.9 | strikingly favorable split to weak systemic activity | 11.3 ± 2.0 mg/100 g of liver | 0.5 ± 0.7 | 25.9 ± 13 mg/100 g of liver | 2.4 ± 2.4 | do not have any significant effect at 3 mg/kg | – | – | –
CCOC(=O)O[C@]1(C(=O)COC(=O)Cc2ccccc2)[C@@H](C)C[C@H]2[C@@H]3CCC4=CC(=O)C=C[C@]4(C)[C@@]3(F)[C@@H](O)C[C@@]21C [Compound II, Betamethasone 17-ethyl carbonate 21-phenyl acetate] | – | – | 66 | 5.1 ± 3.3 | 70 | 4.5 ± 3.1 | strong local antiinflammatory effect | corresponding effect to that of compound I | 0.33 ± 0.12 | 0.19 ± 0.9 | strikingly favorable split to weak systemic activity | 23.6 ± 6.8 mg/100 g of liver | 2.8 ± 1.4 | 37.9 ± 30 mg/100 g of liver | 7.4 ± 10 | do not have any significant effect at 3 mg/kg | – | – | –
CCOC(=O)O[C@]1(C(=O)COC(=O)CC)CC[C@H]2[C@@H]3CCC4=CC(=O)C=C[C@]4(C)[C@H]3[C@@H](O)C[C@@]21C [Prednicarbate, prednisolone 17-ethyl carbonate 21-propionate, reference compound] | – | – | – | – | – | – | – | – | – | – | – | – | – | – | – | – | 80 | 3 ± 1.7 | corresponds to the behavior of prednicarbate
